In PubChem BioAssay (NCI):
Where “and” joins values, the source holds several entries; their conditions need not be identical. Identical values can stand only once.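 Compound exposure: 48 hours, 5 concentrations, 96-well plates. At the GI50, growth is halved. TGI: total growth inhibition.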

Tested on: OVCAR-8 ovarian
Experiment: inhibition of tumour cell growth, NCI panel, 48 h

SMILES | GI50 | TGI
COc1ccc(CN2C(=O)C(Cl)=C(Nc3cccc(C(F)(F)F)c3)C2=O)cc1 | 7.65 µM | 30.8 µM

Tested on: SK-MEL-28 melanoma
Experiment: inhibition of tumour cell growth, NCI panel, 48 h

SMILES | GI50 | TGI
COc1cc(-c2nn(-c3cccc(NC(=O)c4ccccc4)c3)cc2-c2ccncc2)ccc1Cl | 3.26 µM | > 100 µM
CC(=O)[O-].CC(=O)[O-].O=C(N/N=C/c1cc(Cl)cc(Cl)c1O)c1ccncc1.[Cu+2] |  | > 100 µM
O=C1CSC(=S)N1/N=C/c1ccc(Cl)c([N+](=O)[O-])c1 |  | 62.1 µM
CCCCCCCCCCSC(=N)N (tested in a mixture with another compound) | 2.65 µM | 8.15 µM
COc1cc2c(cc1OC)-c1cc(OC)c(OC)cc1C(CN(C)C)C2 (configuration not stated) | > 10 µM | > 10 µM
O=C(NC1CCCCC1)NS(=O)(=O)c1ccc(N2N=C3c4ccccc4CC3C2c2ccc(Cl)cc2)cc1 (configuration not stated) | 29.7 µM | > 100 µM
c1ccc(-c2n(Cc3ccc4ccccc4n3)cc[n+]2Cc2ccc3ccccc3c2)cc1 | 0.936 µM | 2.84 µM
C[C@@H]1CC[C@H]2C(C)(C)[C@H]3C[C@@]12CC[C@@]3(C)O |  | > 100 µM
O=C(Nc1cccc(C(F)(F)F)c1)Nc1cccc(C(F)(F)F)c1 | 1.86 µM | 10.5 µM
CC(C)(C)[Si](C)(C)OC1[C@@H](O[Si](C)(C)C(C)(C)C)[C@@H](CNC(=O)NC(=O)C(F)(F)F)O[C@H]1n1cnc2c(NC(=O)Nc3ccccc3)ncnc21 (some centres not stated) | 8.04 µM | 15.2 µM
CC(=C(c1ccc(OCCN2CCCCC2)cc1)c1ccc(OCCN2CCCCC2)cc1)c1ccc(Cl)cc1 | 0.422 µM | 0.773 µM
C=C(C)C(=O)O[C@@H]1C[C@@]2(C)O[C@@H]2C[C@H](O)/C(C)=C/[C@H]2OC(=O)C(=C)[C@@H]21 |  | 56.5 µM
C=CC(=O)Nc1cc(Nc2nccc(-c3cn(C)c4ccccc34)n2)c(OC)cc1N(C)CCN(C)C | 1.63 µM and 1.62 µM | 3.07 µM and 3.12 µM
CC(=O)OC1(C)N=NC2(CCCCC2)O1 (configuration not stated) |  | > 100 µM
Cc1ccc(-c2nc(N3CCNCC3)c3oc(-c4ccc(C)cc4)nc3n2)cc1 | 6.14 µM | 11.5 µM
Cc1cc2c(cc1C)[n+](=O)c(C(=O)c1ccccc1)c(C(F)F)n2[O-] | 17.8 µM | > 100 µM

SMILES | GI50 | TGI
Cc1ccc(NC2=C3CCCCC3OC2=O)cc1 (configuration not stated) | > 100 µM | > 100 µM
CN(C)c1ccc(/C=N/NC(=S)Nc2ccccc2)cc1 |  | > 100 µM
COc1ccc2ncnc(Nc3ccc(OCc4ccccc4)cc3)c2c1 | 9.36 µM | > 25 µM
O=C1c2c(F)c(F)c(F)c(F)c2C(=O)N1c1ccc(F)cc1F | 13.4 µM | > 72.4 µM
CC(C)[C@@H]1NC(=O)[C@]2(C)CSC(=N2)c2ccnc(c2)CNC(=O)C[C@@H](/C=C/CCS)OC1=O | 0.119 µM | 3.46 µM
OC(c1cc(C(F)(F)F)nc2c(C(F)(F)F)cccc12)C1CCCCN1 (configuration not stated) | 1.84 µM | 3.29 µM
C/C=C/[C@@H]1O[C@@H]2COC(=O)C2=C[C@@H]1O | 15.3 µM | 32.9 µM
COC(=O)/C=C/c1cc(OC(C)=O)c2c(c1)[C@@H](C(=O)OC)[C@H](c1ccc(OC(C)=O)c(OC(C)=O)c1)O2 | 0.852 µM | 80.8 µM
Nc1nc2[nH]cc(CCc3ccc(C(=O)N[C@@H](CCC(=O)O)C(=O)O)cc3)c2c(=O)[nH]1 |  | > 100 µM
Fc1cc(-c2nnc3n2N=C(c2ccc(Cl)cc2)CS3)c(Cl)cc1Cl | 7.56 µM | 34.8 µM
CN1CCN(C(=O)COc2ccc(C34CC5CC(CC(C5)C3)C4)cc2)CC1 | 12.7 µM | 26.2 µM
COc1ccccc1NC(=O)c1cc2cc(Br)ccc2cc1O | 4.46 µM | 14.4 µM
CC(=O)OCc1ccc2c(c1)C(O)NC(=O)O2 (configuration not stated) |  | > 100 µM
O=C(Nc1nn2c(-c3cc(C(F)(F)F)cc(C(F)(F)F)c3)nnc2s1)C1CCCC1 | 0.734 µM | > 100 µM
COC(=O)[C@]12CC[C@@H](C)[C@H](C)[C@@H]1C1=CC[C@@H]3[C@@]4(C)C[C@@H](O)[C@H](O)[C@@](C)(CO)[C@@H]4[C@H](O)C[C@@]3(C)[C@]1(C)CC2 | 11.8 µM | 30.3 µM
COc1ccc(CN2C(=O)C(Cl)=C(Nc3cccc(C(F)(F)F)c3)C2=O)cc1 | 4.89 µM | 18.2 µM

Tested on: SNB-75 CNS
Experiment: inhibition of tumour cell growth, NCI panel, 48 h

SMILES | GI50 | TGI
COc1cc(-c2nn(-c3cccc(NC(=O)c4ccccc4)c3)cc2-c2ccncc2)ccc1Cl | 0.575 µM | > 100 µM
CC(=O)[O-].CC(=O)[O-].O=C(N/N=C/c1cc(Cl)cc(Cl)c1O)c1ccncc1.[Cu+2] |  | > 100 µM
O=C1CSC(=S)N1/N=C/c1ccc(Cl)c([N+](=O)[O-])c1 |  | > 100 µM
CCCCCCCCCCSC(=N)N (tested in a mixture with another compound) | 1.42 µM | 3.43 µM
COc1cc2c(cc1OC)-c1cc(OC)c(OC)cc1C(CN(C)C)C2 (configuration not stated) | 4.56 µM | > 10 µM
O=C(NC1CCCCC1)NS(=O)(=O)c1ccc(N2N=C3c4ccccc4CC3C2c2ccc(Cl)cc2)cc1 (configuration not stated) | 13.2 µM | 85.9 µM
c1ccc(-c2n(Cc3ccc4ccccc4n3)cc[n+]2Cc2ccc3ccccc3c2)cc1 | 0.624 µM | 3.15 µM
C[C@@H]1CC[C@H]2C(C)(C)[C@H]3C[C@@]12CC[C@@]3(C)O |  | > 100 µM
O=C(Nc1cccc(C(F)(F)F)c1)Nc1cccc(C(F)(F)F)c1 | 3.49 µM | 31.7 µM
CC(C)(C)[Si](C)(C)OC1[C@@H](O[Si](C)(C)C(C)(C)C)[C@@H](CNC(=O)NC(=O)C(F)(F)F)O[C@H]1n1cnc2c(NC(=O)Nc3ccccc3)ncnc21 (some centres not stated) | 5.68 µM | 12.7 µM
CC(=C(c1ccc(OCCN2CCCCC2)cc1)c1ccc(OCCN2CCCCC2)cc1)c1ccc(Cl)cc1 | 0.325 µM | 0.673 µM
C=C(C)C(=O)O[C@@H]1C[C@@]2(C)O[C@@H]2C[C@H](O)/C(C)=C/[C@H]2OC(=O)C(=C)[C@@H]21 |  | > 100 µM
C=CC(=O)Nc1cc(Nc2nccc(-c3cn(C)c4ccccc34)n2)c(OC)cc1N(C)CCN(C)C | 3.52 µM and 2.57 µM | 16.4 µM and > 10 µM
CC(=O)OC1(C)N=NC2(CCCCC2)O1 (configuration not stated) |  | > 100 µM
Cc1ccc(-c2nc(N3CCNCC3)c3oc(-c4ccc(C)cc4)nc3n2)cc1 | 8.66 µM | > 32.1 µM
Cc1cc2c(cc1C)[n+](=O)c(C(=O)c1ccccc1)c(C(F)F)n2[O-] | 60.9 µM | > 100 µM

SMILES | GI50 | TGI
Cc1ccc(NC2=C3CCCCC3OC2=O)cc1 (configuration not stated) | 71.9 µM | > 100 µM
CN(C)c1ccc(/C=N/NC(=S)Nc2ccccc2)cc1 |  | > 100 µM
COc1ccc2ncnc(Nc3ccc(OCc4ccccc4)cc3)c2c1 | 9.78 µM | > 25 µM
O=C1c2c(F)c(F)c(F)c(F)c2C(=O)N1c1ccc(F)cc1F | 12.7 µM | 34.6 µM
CC(C)[C@@H]1NC(=O)[C@]2(C)CSC(=N2)c2ccnc(c2)CNC(=O)C[C@@H](/C=C/CCS)OC1=O | 0.0912 µM | > 100 µM
OC(c1cc(C(F)(F)F)nc2c(C(F)(F)F)cccc12)C1CCCCN1 (configuration not stated) | 2.34 µM | 11.7 µM
C/C=C/[C@@H]1O[C@@H]2COC(=O)C2=C[C@@H]1O | 28.5 µM | 54 µM
COC(=O)/C=C/c1cc(OC(C)=O)c2c(c1)[C@@H](C(=O)OC)[C@H](c1ccc(OC(C)=O)c(OC(C)=O)c1)O2 | 0.0191 µM | 1.48 µM
Nc1nc2[nH]cc(CCc3ccc(C(=O)N[C@@H](CCC(=O)O)C(=O)O)cc3)c2c(=O)[nH]1 |  | > 100 µM
Fc1cc(-c2nnc3n2N=C(c2ccc(Cl)cc2)CS3)c(Cl)cc1Cl | 7.33 µM | 21.9 µM
CN1CCN(C(=O)COc2ccc(C34CC5CC(CC(C5)C3)C4)cc2)CC1 | 14.1 µM | 29.3 µM
COc1ccccc1NC(=O)c1cc2cc(Br)ccc2cc1O | 2.12 µM | 8.89 µM
CC(=O)OCc1ccc2c(c1)C(O)NC(=O)O2 (configuration not stated) |  | > 100 µM
O=C(Nc1nn2c(-c3cc(C(F)(F)F)cc(C(F)(F)F)c3)nnc2s1)C1CCCC1 | 1.43 µM | > 28.2 µM
COC(=O)[C@]12CC[C@@H](C)[C@H](C)[C@@H]1C1=CC[C@@H]3[C@@]4(C)C[C@@H](O)[C@H](O)[C@@](C)(CO)[C@@H]4[C@H](O)C[C@@]3(C)[C@]1(C)CC2 | 12.3 µM | 28.1 µM
